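48-hour exposure; five concentrations; linearly interpolated endpoints. Abbreviation: GI50, concentration required for 50% inhibition of growth. TGI marks complete inhibition of growth.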

Test systems include CAKI-1 renal; HOP-62 NSCLC; M14 melanoma; OVCAR-8 ovarian; RPMI-8226 leukemia; SF-539 CNS; HT29 colon; K-562 leukemia; SK-OV-3 ovarian; A498 renal.
What all share (assay): growth of human tumour cells (NCI), 48 h

For `COc1ccc(CNC(=O)COc2ccc(/C=N/Nc3nc4ccccc4s3)cc2)cc1`, the GI50 was 1.98 µM in the assay on CAKI-1 renal; 2.22 µM in the assay on HOP-62 NSCLC; 4.69 µM with M14 melanoma; 3.93 µM in the assay with OVCAR-8 ovarian; 2.13 µM with RPMI-8226 leukemia; 1.65 µM in the assay with SF-539 CNS. Besides, the TGI is 5.21 µM in the assay on CAKI-1 renal; 11.6 µM in the assay with HOP-62 NSCLC; more than 100 µM with M14 melanoma; more than 100 µM in the assay with OVCAR-8 ovarian; more than 100 µM in the assay on RPMI-8226 leukemia; 4.18 µM in the assay on SF-539 CNS.

With `NNC(=O)c1cnn(-c2ccnc3c(C(F)(F)F)cccc23)c1N`, the GI50 in the assay with CAKI-1 renal, in the assay on HOP-62 NSCLC, in the assay with HT29 colon, in the assay with K-562 leukemia, in the assay with OVCAR-8 ovarian and with RPMI-8226 leukemia was more than 100 µM each time. For the same compound, the GI50 with SF-539 CNS and in the assay on SK-OV-3 ovarian was more than 100 µM in each case. For the same compound, the TGI in the assay with CAKI-1 renal, with HOP-62 NSCLC, in the assay with HT29 colon, in the assay on K-562 leukemia, in the assay on OVCAR-8 ovarian and with RPMI-8226 leukemia was more than 100 µM each time. In addition, the TGI in the assay on SF-539 CNS and in the assay on SK-OV-3 ovarian was more than 100 µM each time.

In the case of `CC1(C)N=C(N)N=C(N)N1c1ccc(CCCCc2ccc(S(=O)(=O)F)cc2Cl)c(Cl)c1`, the TGI with A498 renal was 261 µM; in the assay with CAKI-1 renal it was 128 µM; with HOP-62 NSCLC, 47.2 µM; with HT29 colon, 298 µM; with K-562 leukemia, 64.3 µM; in the assay with M14 melanoma it was more than 382 µM. For the same compound, the TGI with OVCAR-8 ovarian was determined as 261 µM; with SF-539 CNS, 13.9 µM; in the assay with SK-OV-3 ovarian, 351 µM.

Consider `c1ccc(-c2nnc(-c3nn(-c4ccccc4)c4nc5ccccc5nc34)o2)cc1`, for which the TGI with CAKI-1 renal, with HOP-62 NSCLC, in the assay with HT29 colon, in the assay on K-562 leukemia, in the assay with M14 melanoma and with OVCAR-8 ovarian was more than 100 µM each time. The TGI in the assay on RPMI-8226 leukemia, in the assay on SF-539 CNS and in the assay with SK-OV-3 ovarian was more than 100 µM in each case.

On to `CC1=C(CCCOC(=O)NCCCl)C2=C(C)C3(CC3)[C@@](C)(O)C(=O)C2=C1`, for which the GI50 in the assay with A498 renal is 1.88 µM; with HOP-62 NSCLC, 2.37 µM; in the assay on HT29 colon, 3.01 µM; in the assay with K-562 leukemia, 23 µM; with M14 melanoma it was 2.46 µM; in the assay with OVCAR-8 ovarian, 3.4 µM. Further, the GI50 in the assay on RPMI-8226 leukemia was 8.4 µM; in the assay on SF-539 CNS it was 2.04 µM; with SK-OV-3 ovarian, 2.35 µM. Besides, the TGI is 3.95 µM in the assay on A498 renal; 7.42 µM with HOP-62 NSCLC; 28.6 µM in the assay with HT29 colon; more than 100 µM with K-562 leukemia; 8.58 µM with M14 melanoma; more than 100 µM with OVCAR-8 ovarian. In addition, the TGI in the assay with RPMI-8226 leukemia amounted to 40.1 µM; in the assay on SF-539 CNS, 5.5 µM; with SK-OV-3 ovarian, 6.46 µM.

For `O=C(N/N=C/c1cccc(O)c1O)N/N=C/c1cccc(O)c1O`, the TGI in the assay with A498 renal was more than 100 µM; in the assay with HT29 colon, more than 100 µM; in the assay with K-562 leukemia, more than 100 µM; in the assay on M14 melanoma it was 34 µM; in the assay on OVCAR-8 ovarian, more than 100 µM; in the assay with RPMI-8226 leukemia it was 76.8 µM. For the same compound, the figures for the TGI in the assay on SF-539 CNS and in the assay with SK-OV-3 ovarian were 36.2 µM and more than 100 µM, respectively.

For `O=C(Cc1ccc(/C=C/C(=O)c2ncc[nH]2)cc1)Nc1ccc(Cl)cc1`, the GI50 was 5.48 µM with A498 renal; 4.88 µM in the assay with CAKI-1 renal; 3.19 µM in the assay with HOP-62 NSCLC; 0.886 µM in the assay with HT29 colon; 3.65 µM in the assay with OVCAR-8 ovarian; 0.857 µM with RPMI-8226 leukemia. Also, the GI50 in the assay on SF-539 CNS is 3.33 µM; in the assay on SK-OV-3 ovarian, 9.74 µM. Moreover, the TGI is 13 µM in the assay with A498 renal; 15.4 µM with CAKI-1 renal; 8.78 µM in the assay with HOP-62 NSCLC; 2.96 µM in the assay with HT29 colon; 16 µM with OVCAR-8 ovarian; 3.92 µM in the assay with RPMI-8226 leukemia. In addition, the TGI with SF-539 CNS is 7.03 µM; with SK-OV-3 ovarian, more than 25 µM.

In the case of `CCOC(=O)CCCO`, the TGI with A498 renal, in the assay with HT29 colon, in the assay on K-562 leukemia, in the assay with M14 melanoma, in the assay on OVCAR-8 ovarian and in the assay on RPMI-8226 leukemia was more than 100 µM each time. Besides, the TGI in the assay on SF-539 CNS and in the assay on SK-OV-3 ovarian was more than 100 µM each time.

Turning to `O=C1/C(=C/c2ccccc2)CN(C(=O)Oc2ccc(Cl)cc2)C/C1=C\c1ccccc1`, the TGI in the assay on A498 renal came out at 7.81 µM; in the assay with HOP-62 NSCLC, 14.7 µM; with HT29 colon, 2.97 µM; in the assay on K-562 leukemia it was 5.79 µM; with M14 melanoma, 3.48 µM; in the assay on OVCAR-8 ovarian it was 3.6 µM. Further, the TGI came out at 0.902 µM in the assay on RPMI-8226 leukemia, 5.92 µM in the assay with SF-539 CNS and 20.5 µM in the assay with SK-OV-3 ovarian.

On to `COc1ccc(N=Cc2cc(OC)c(OC)c(OC)c2)cc1`, for which the TGI in the assay on A498 renal, with CAKI-1 renal, in the assay on HOP-62 NSCLC, with HT29 colon, in the assay on K-562 leukemia and in the assay with OVCAR-8 ovarian was more than 100 µM each time. The results for the TGI in the assay on RPMI-8226 leukemia, in the assay on SF-539 CNS and in the assay on SK-OV-3 ovarian were 59.6 µM, more than 100 µM and more than 100 µM, respectively. In addition, in the assay on CAKI-1 renal, the GI50 was more than 100 µM.

Take `COc1ccc(CN2CCCC(C(=O)c3ccc(C(F)(F)F)cc3)C2)c(O)c1` (stereo not drawn): the GI50 in the assay with A498 renal was 0.0189 µM; with CAKI-1 renal it was 22.1 µM; in the assay with HOP-62 NSCLC, 29.1 µM; in the assay with HT29 colon, 14.4 µM; in the assay with K-562 leukemia, 19.3 µM; with OVCAR-8 ovarian, 36.6 µM. Besides, the GI50 is 22 µM with RPMI-8226 leukemia, 18.8 µM with SF-539 CNS and 36.1 µM with SK-OV-3 ovarian. For the same compound, the TGI with A498 renal was 33.1 µM; with CAKI-1 renal, more than 100 µM; in the assay with HOP-62 NSCLC, more than 100 µM; with HT29 colon, 33.9 µM; in the assay on K-562 leukemia, 93.3 µM; in the assay on OVCAR-8 ovarian, more than 100 µM. Besides, the values for the TGI in the assay with RPMI-8226 leukemia, in the assay on SF-539 CNS and in the assay with SK-OV-3 ovarian were 62.4 µM, 46.1 µM and more than 100 µM, respectively.
